Results from patent publication US11261177B2, “Benzoxazinone derivatives useful as herbicides” (REDAG CROP PROTECTION LTD, priority 2017, dated 2022).

Columns and labels:
Assay type in all cases: in vivo
[1] = tested on: Lolium perenne; test: Post-emergence herbicidal assay, 96 cell trays, glasshouse; details: 168 h, Lollium, assessed 7 days after treatment, read-out: % control of plant growth; for pest or weed control at 200 g/ha: 0.2 kg/ha; for pest or weed control at 1000 g/ha: 1 kg/ha; for pest or weed control at 5000 g/ha: 5 kg/ha
Protocol: (§1) The compounds were screened at three concentrations (0.2, 1 and 5 kg/ha) against 2 weed species (Stellaria media—Chickweed and Lolium perenne). The seeds were sown in the cells of 96 cell trays (4-6 seeds per cell). For the pre-emergence assay, 75 μL of a suspension of the test compound, at the above doses, was added on top of the soil 1 day after sowing. For the post-emergence assay, the seedlings were sprayed with 200 μL of a suspension of the test compound two weeks after sowing. The formulation used is 25% acetone and 75% water/0.01% Tween 20. Each treatment was replicated three times. The plants were kept in a glasshouse (uncontrolled conditions) and assessed 7 days after treatment. A small number of compounds were tested in a first trial. A larger number of compounds were tested in a second trial. The assessment was based on the % control of plant growth in each cell.

[2] = tested on: Stellaria media—Chickweed; test: as above; details: 168 h, assessed 7 days after treatment, read-out: % control of plant growth; for pest or weed control at 200 g/ha: 0.2 kg/ha; for pest or weed control at 1000 g/ha: 1 kg/ha; for pest or weed control at 5000 g/ha: 5 kg/ha
Protocol: as §1

[3] = tested on: Lolium perenne; test: Pre-emergence herbicidal assay, 96 cell trays, glasshouse; details: 168 h, Lollium, assessed 7 days after treatment, read-out: % control of plant growth; for pest or weed control at 200 g/ha: 0.2 kg/ha; for pest or weed control at 1000 g/ha: 1 kg/ha; for pest or weed control at 5000 g/ha: 5 kg/ha
Protocol: as §1

[4] = tested on: Stellaria media—Chickweed; test: as above; details: 168 h, assessed 7 days after treatment, read-out: % control of plant growth; for pest or weed control at 200 g/ha: 0.2 kg/ha; for pest or weed control at 1000 g/ha: 1 kg/ha; for pest or weed control at 5000 g/ha: 5 kg/ha
Protocol: as §1

SMILES | pest or weed control at 200 g/ha ([1]; second trial (Table 2)) [%] | pest or weed control at 1000 g/ha ([1]; second trial (Table 2)) [%] | pest or weed control at 5000 g/ha ([1]; second trial (Table 2)) [%] | pest or weed control at 200 g/ha ([2]; second trial (Table 2)) [%] | pest or weed control at 1000 g/ha ([2]; second trial (Table 2)) [%] | pest or weed control at 5000 g/ha ([2]; second trial (Table 2)) [%] | pest or weed control at 1000 g/ha ([3]; second trial (Table 2)) [%] | pest or weed control at 5000 g/ha ([3]; second trial (Table 2)) [%] | pest or weed control at 1000 g/ha ([4]; second trial (Table 2)) [%] | pest or weed control at 5000 g/ha ([4]; second trial (Table 2)) [%] | further results
C#CCN1C(=O)C2(CC2)Oc2cc(F)c(-n3c(=O)n(C)c(=S)n(C)c3=O)cc21 [Comparative Example, 3-(7-Fluoro-3-oxo-4-(prop-2-yn-1-yl)-3,4-dihydrospiro[benzo[b][1,4]oxazine-2,1′-cyclopropan]-6-yl)-1,5-dimethyl-6-thioxo-1,3,5-triazinane-2,4-dione, reference compound] | 20 to 80 | 20 to 80 | 80 to 100 | 20 to 80 | 80 to 100 | 80 to 100 | 20 to 80 | 80 to 100 | 80 to 100 | 80 to 100 | pest or weed control at 200 g/ha ([1]; first trial (Table 1)): 20 to 80%; pest or weed control at 1000 g/ha ([1]; first trial (Table 1)): 20 to 80%; pest or weed control at 5000 g/ha ([1]; first trial (Table 1)): 80 to 100%; pest or weed control at 200 g/ha ([2]; first trial (Table 1)): < 20%; pest or weed control at 1000 g/ha ([2]; first trial (Table 1)): 20 to 80%; pest or weed control at 5000 g/ha ([2]; first trial (Table 1)): 20 to 80%; pest or weed control at 200 g/ha ([3]; first trial (Table 1)): < 20%; pest or weed control at 1000 g/ha ([3]; first trial (Table 1)): 20 to 80%; pest or weed control at 5000 g/ha ([3]; first trial (Table 1)): 80 to 100%; pest or weed control at 200 g/ha ([3]; second trial (Table 2)): < 20%; pest or weed control at 200 g/ha ([4]; first trial (Table 1)): < 20%; pest or weed control at 1000 g/ha ([4]; first trial (Table 1)): < 20%; pest or weed control at 5000 g/ha ([4]; first trial (Table 1)): < 20%; pest or weed control at 200 g/ha ([4]; second trial (Table 2)): 20 to 80%
C#CCN1C(=O)C2(CC2)Oc2cc(F)c(N3C(=O)C4=C(CCCC4)C3=O)cc21 [Example 1, 2-(7-Fluoro-3-oxo-4-(prop-2-yn-1-yl)-3,4-dihydrospiro[benzo[b][1,4]oxazine-2,1′-cyclopropan]-6-yl)-4,5,6,7-tetrahydro-1H-isoindole-1,3(2H)-dione] | 20 to 80 | 80 to 100 | 80 to 100 | 80 to 100 | 80 to 100 | 80 to 100 | 20 to 80 | 80 to 100 | 80 to 100 | 80 to 100 | pest or weed control at 200 g/ha ([1]; first trial (Table 1)): < 20%; pest or weed control at 1000 g/ha ([1]; first trial (Table 1)): 20 to 80%; pest or weed control at 5000 g/ha ([1]; first trial (Table 1)): 80 to 100%; pest or weed control at 200 g/ha ([2]; first trial (Table 1)): < 20%; pest or weed control at 1000 g/ha ([2]; first trial (Table 1)): 20 to 80%; pest or weed control at 5000 g/ha ([2]; first trial (Table 1)): 20 to 80%; pest or weed control at 200 g/ha ([3]; first trial (Table 1)): 20 to 80%; pest or weed control at 1000 g/ha ([3]; first trial (Table 1)): 20 to 80%; pest or weed control at 5000 g/ha ([3]; first trial (Table 1)): 20 to 80%; pest or weed control at 200 g/ha ([3]; second trial (Table 2)): 20 to 80%; pest or weed control at 200 g/ha ([4]; first trial (Table 1)): < 20%; pest or weed control at 1000 g/ha ([4]; first trial (Table 1)): < 20%; pest or weed control at 5000 g/ha ([4]; first trial (Table 1)): < 20%; pest or weed control at 200 g/ha ([4]; second trial (Table 2)): 20 to 80%
C#CCN1C(=O)C2(CC2)Oc2cc(F)c(N3C(=O)C(=O)N(CCC)C3=S)cc21 [Example 2, 1-(7-Fluoro-3-oxo-4-(prop-2-yn-1-yl)-3,4-dihydrospiro[benzo[b][1,4]oxazine-2,1′-cyclopropan]-6-yl)-3-propyl-2-thioxoimidazolidine-4,5-dione] | < 20 | < 20 | < 20 | 20 to 80 | 20 to 80 | 20 to 80 | < 20 | < 20 | 20 to 80 | 20 to 80 | pest or weed control at 200 g/ha ([1]; first trial (Table 1)): < 20%; pest or weed control at 1000 g/ha ([1]; first trial (Table 1)): < 20%; pest or weed control at 5000 g/ha ([1]; first trial (Table 1)): < 20%; pest or weed control at 200 g/ha ([2]; first trial (Table 1)): 20 to 80%; pest or weed control at 1000 g/ha ([2]; first trial (Table 1)): 20 to 80%; pest or weed control at 5000 g/ha ([2]; first trial (Table 1)): 20 to 80%; pest or weed control at 200 g/ha ([3]; first trial (Table 1)): < 20%; pest or weed control at 1000 g/ha ([3]; first trial (Table 1)): < 20%; pest or weed control at 5000 g/ha ([3]; first trial (Table 1)): < 20%; pest or weed control at 200 g/ha ([3]; second trial (Table 2)): < 20%; pest or weed control at 200 g/ha ([4]; first trial (Table 1)): 20 to 80%; pest or weed control at 1000 g/ha ([4]; first trial (Table 1)): 20 to 80%; pest or weed control at 5000 g/ha ([4]; first trial (Table 1)): 20 to 80%; pest or weed control at 200 g/ha ([4]; second trial (Table 2)): 20 to 80%
C#CCN1C(=O)C2(CC2)Oc2cc(F)c(-n3nc(C(C)(C)C)oc3=O)cc21 [Example 3, 6-(5-(tert-Butyl)-2-oxo-1,3,4-oxadiazol-3(2H)-yl)-7-fluoro-4-(prop-2-yn-1-yl)spiro[benzo[b][1,4]oxazine-2,1′-cyclopropan]-3(4H)-one] |  |  |  |  |  |  |  |  |  |  | pest or weed control at 200 g/ha ([1]; first trial (Table 1)): 20 to 80%; pest or weed control at 1000 g/ha ([1]; first trial (Table 1)): 80 to 100%; pest or weed control at 5000 g/ha ([1]; first trial (Table 1)): 80 to 100%; pest or weed control at 200 g/ha ([2]; first trial (Table 1)): 20 to 80%; pest or weed control at 1000 g/ha ([2]; first trial (Table 1)): 20 to 80%; pest or weed control at 5000 g/ha ([2]; first trial (Table 1)): 20 to 80%; pest or weed control at 200 g/ha ([3]; first trial (Table 1)): < 20%; pest or weed control at 1000 g/ha ([3]; first trial (Table 1)): 20 to 80%; pest or weed control at 5000 g/ha ([3]; first trial (Table 1)): 80 to 100%; pest or weed control at 200 g/ha ([4]; first trial (Table 1)): 20 to 80%; pest or weed control at 1000 g/ha ([4]; first trial (Table 1)): 80 to 100%; pest or weed control at 5000 g/ha ([4]; first trial (Table 1)): 80 to 100%
C#CCN1C(=O)C2(CC2)Oc2cc(F)c(N3C(=O)c4ccc(F)cc4C3=O)cc21 [Example 5] | 20 to 80 | 20 to 80 | 80 to 100 | 80 to 100 | 80 to 100 | 80 to 100 | 20 to 80 | 80 to 100 | 80 to 100 | 80 to 100 | 
C#CCN1C(=O)C2(CC2)Oc2cc(F)c(N3C(=O)c4cccc(F)c4C3=O)cc21 [Example 6] | 20 to 80 | 80 to 100 | 80 to 100 | 20 to 80 | 80 to 100 | 80 to 100 | < 20 | 20 to 80 | 20 to 80 | 80 to 100 | pest or weed control at 200 g/ha ([3]; second trial (Table 2)): < 20%; pest or weed control at 200 g/ha ([4]; second trial (Table 2)): 20 to 80%
O=C1N(CC2CC2)c2cc(/N=c3\sc(=O)n4n3CCCC4)c(F)cc2OC12CC2 [Example 37] | 20 to 80 | 20 to 80 | 80 to 100 | 80 to 100 | 80 to 100 | 80 to 100 |  |  |  |  | 
COC(=O)C(C)N1C(=O)C2(CC2)Oc2cc(F)c(/N=c3\sc(=O)n4n3CCCC4)cc21 (stereo not shown) [Example 38] | 20 to 80 | 20 to 80 | 80 to 100 | 80 to 100 | 80 to 100 | 80 to 100 |  |  |  |  | 
C#CCN1C(=O)C2(CC2)Oc2cc(F)c(N3C(=O)C4COCCN4C3=O)cc21 (stereo not shown) [Example 45, 2-(7-Fluoro-3-oxo-4-(prop-2-yn-1-yl)-3,4-dihydrospiro[benzo[b][1,4]oxazine-2,1′-cyclopropan]-6-yl)tetrahydro-1H-imidazo[5,1-c][1,4]oxazine-1,3(2H)-dione] | 80 to 100 | 80 to 100 | 80 to 100 | 80 to 100 | 80 to 100 | 80 to 100 |  |  |  |  | 
O=C1C2CC(O)CN2C(=O)N1c1cc2c(cc1F)OC1(CC1)C(=O)N2CC1CC1 (stereo not shown) [Example 46] | < 20 | < 20 | < 20 | < 20 | < 20 | < 20 |  |  |  |  | 
O=C1C2COCCN2C(=O)N1c1cc2c(cc1F)OC1(CC1)C(=O)N2CC1CC1 (stereo not shown) [Example 48] | < 20 | < 20 | 20 to 80 | 80 to 100 | 80 to 100 | 80 to 100 |  |  |  |  | 
COC(=O)C(C)N1C(=O)C2(CC2)Oc2cc(F)c(N3C(=O)C4COCCN4C3=O)cc21 (stereo not shown) [Example 49] | < 20 | < 20 | < 20 | 80 to 100 | 80 to 100 | 80 to 100 |  |  |  |  | 
N#CCN1C(=O)C2(CC2)Oc2cc(F)c(N3C(=O)C4COCCN4C3=O)cc21 (stereo not shown) [Example 50] | < 20 | < 20 | < 20 | 80 to 100 | 80 to 100 | 80 to 100 |  |  |  |  | 
CC(C)=CCN1C(=O)C2(CC2)Oc2cc(F)c(N3C(=O)C4COCCN4C3=O)cc21 (stereo not shown) [Example 51] | < 20 | < 20 | < 20 | 80 to 100 | 80 to 100 | 80 to 100 |  |  |  |  | 
O=C1C2CCCN2C(=O)N1c1cc2c(cc1F)OC1(CC1)C(=O)N2CC1CC1 (stereo not shown) [Example 52] | < 20 | 20 to 80 | 20 to 80 | 80 to 100 | 80 to 100 | 80 to 100 |  |  |  |  | 
